Experimental data from patent publication US8338363B2, “Pharmaceutical compositions comprising casein derived peptides and methods of use thereof” (Mileutis Ltd., priority 2005, dated 2012).

Experiment: Welfare of cows induced to dry off (Example 6): udder pressure index, steps/lying ratio
Format: in vivo, Holstein cows
Procedure: 20 Holstein cows toward the end of lactation (˜60 days) and producing 17-35 liters milk per day were entered to the study. Cows were paired according to lactation number, days in milk, days to parturition, teat-end integrity, milk yield, SCC per ml of milk per cow or quarter and number of quarters infected at day of drying-off (Table 13).
Quarter's milk SCC and bacterial isolation were tested a week apart for 3 times, before drying-off. One cow of each pair was then assigned to a subgroup randomly (by flipping a coin). Cows in subgroup 1 were treated after milking with casein hydrolyzate and with the broad range antibiotic Cefquinome, (75 mg per dose) (N+C), while the cows in subgroup 2 were treated with Cefquinome alone (75 mg per dose) (C). […]
Udder pressure index (UPI) was set as follows: 0, 1, 2 and 3, where 0 is no pressure, 1 is medium pressure, 2 is high pressure and 3 is extremely high pressure. Arbitrary UPI values were determined by assessing the udder pressure by pressing a finger into the tissue and assessing its resistant to pressure in two areas, the milk cistern and corpus ubeis, 10 cm above the teats. […]
Data were statistically analyzed using the fit model procedure for repeated measurements of JMP (Version 5, SAS Institute, Cary, N.C.); treatment was the between-subject factor and time was the within-subject factor. […]

CO/N=C(\C(=O)N[C@@H]1C(=O)N2C(C(=O)[O-])=C(C[n+]3cccc4c3CCCC4)CS[C@H]12)c1csc(N)n1 [C, Cefquinome]
Udder pressure index (UPI), single cow (day 4 after treatment, cow with milk yield over 30 liters per day at dry-off (FIG. 4)): ~2
ratio between number of steps and duration of lying (RSL) (from the second day after treatment, 10 cows per group (FIG. 5)): unchanged
